These results are taken from patent publication US20230118795A1, “ARYL OR HETEROARYL PYRIDONE OR PYRIMIDINE DERIVATIVE, PREPARATION METHOD AND USE THEREOF” (SUZHOU ZELGEN BIOPHARMACEUTICALS CO., LTD., priority 2020, published 2023).

Read-outs that look alike come from different tables or passages of the source.

Data set [1] is described as follows: Pharmacokinetic test in mice, plasma concentration by LC/MS/MS. Type of data set: in vivo. To be noted: male ICR mice, 30 mg/kg by gavage, CMC/TW80 carrier, n = 4, mean. On the procedure:
Evaluation of Pharmacokinetic Tests in Mice
Male ICR mice with a body weight of about 20-30 g, were given 30 mg/kg of solutions of compounds of Examples 10B, 16B, 18A, 63B and 78B of the present invention [CMC/TW80 as carrier] by gavage after fasting overnight. Blood samples were collected at 0.5, 1.0, 2.0, 4.0, 6.0, 8.0, 12 and 24 hours after the compound was administrated, and the concentrations of the compound in plasma were determined by LC/MS/MS.

For data set [2], the system named is NCI-H358 (KRAS^G12C mutation) cell. The experiment in a line: Cell assay of antiproliferative activity against NCI-H358 cell (Celltiter-Glo, 5 days). Type of data set: cell-based. As to conditions: 5 days incubation. The essentials:
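KRAS G12C NCI-H358 cells were plated in 384-well format and incubated overnight before compound addition. Compounds were added as a 10-point series (diluted from 50 μM to 0.003 μM before transfer) and incubated 5 days. Viability by CellTiter-Glo luminescence, with IC50 from curve fitting.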

In data set [3] the test system is NCI-H358 tumor cells. As to the kind of experiment: H358 CDX tumor model, anti-tumor activity. Type of data set: in vivo. As to conditions: NCI-H358 xenograft in nude mice; for efficacy compared with control compound AMG 510 (in words): 20 mg/Kg; for TV (mm^3) Day 0: Day 0 (at grouping), 20 mg/Kg intragastric every day; for % TGI / % Tumor Growth / TV (mm^3) Day 20: Day 20, 20 mg/Kg intragastric every day. On the procedure:
100 uL suspension containing 5×10^6 NCI-H358 tumor cells was subcutaneously injected into the right posterior back of nude mice. The health of the mice was monitored daily. Measurements were started when the tumor grew palpable. The tumor volume calculation formula was adopted: 0.5×L×W2, where L and W represented tumor length and width, respectively. The tumor grew to about 200 mm^3, the mice were randomly divided into groups. Mice were intragastrically administrated the corresponding dose (20 mg/Kg) of the compound's solution every day, and their general status was monitored at the same time. The tumor was measured 2 times a week, and the weight was measured twice a week.

One may read the Cmax as the peak of the concentration-time curve. As a reminder, the IC50 is the concentration that inhibits the measured activity by half. Low readings indicate inhibition by little substance, high ones a need for much substance. In data set [1], `C=CC(=O)N1CCN(c2nc(=O)n(-c3c(C(C)C)cccc3S(C)(=O)=O)c3nc(-c4c(O)cccc4F)c(F)cc23)[C@@H](C)C1` (single isomer, unassigned) [Example 10B] had an AUC0-t of 1548 ng·h/mL and a Cmax of 1570 ng/mL. In addition, in data set [2], half-maximal inhibition (IC50) was put at 5 nM.

Take `C=CC(=O)N1CCN(c2nc(=O)n(-c3c(C(C)C)ccnc3S(C)(=O)=O)c3nc(-c4c(O)cccc4F)c(F)cc23)[C@@H](C)C1` (single isomer, unassigned) [Example 16B]: in data set [1], the AUC0-t amounted to 46.1 ng·h/mL and the peak concentration (Cmax) came to 26.1 ng/mL. The same compound came in with a half-inhibitory concentration (IC50) in data set [2] of 7 nM.

In the case of `C=CC(=O)N1CCN(c2nc(=O)n(-c3c(S(C)(=O)=O)ccnc3C(C)C)c3nc(-c4c(O)cccc4F)c(F)cc23)[C@@H](C)C1` (single isomer, unassigned) [Example 18A], the AUC0-t in data set [1] (mouse, po, read-out: AUC0-t) was 219 ng·h/mL. The Cmax in data set [1] (mouse, po, read-out: Cmax) was 336 ng/mL. The compound also displayed an IC50 in data set [2] of 13 nM.

In the case of `C=CC(=O)N1C[C@H](C)N(c2nc(=O)n(-c3c(C4CCC4)cccc3S(C)(=O)=O)c3nc(-c4c(O)cccc4F)c(F)cc23)C[C@H]1C` (single isomer, unassigned) [Example 63B], in data set [1], the AUC0-t was 1540 ng·h/mL and the Cmax came to 796 ng/mL. Moreover, in data set [2], inhibition was half-maximal at 8 nM (IC50). In data set [3], the “efficacy compared with control compound AMG 510 (in words)” value is “better efficacy than the control compound AMG 510”, the “TV (mm^3) Day 0” value came to 196 mm^3, the “% TGI” value amounted to 97.8% and the “% Tumor Growth” value is 19%. In data set [3], the “TV (mm^3) Day 20” value came out at 263 mm^3.

In data set [1], `C=CC(=O)N1C[C@H](C)N(c2nc(=O)n(-c3c(C(C)C)cccc3S(C)(=O)=O)c3nc(-c4c(O)cccc4F)c(F)cc23)C[C@H]1C` (single isomer, unassigned) [Example 78B] came in with an AUC0-t of 688 ng·h/mL and a Cmax of 722 ng/mL. Also, the IC50 in data set [2] came to 7 nM. In data set [3], the “efficacy compared with control compound AMG 510 (in words)” value is given as “better efficacy than the control compound AMG 510”, the “TV (mm^3) Day 0” value is listed as 196 mm^3, the “% TGI” value worked out at 98.5% and the “% Tumor Growth” value is on record as 13%. For the same compound, the “TV (mm^3) Day 20” value in data set [3] is on record as 231 mm^3.

With `C=CC(=O)N1CCN(c2nc(=O)n(-c3c(C)ccnc3C(C)C)c3nc(-c4c(O)cccc4F)c(F)cc23)[C@@H](C)C1` [AMG510, reference compound], in data set [3], the “TV (mm^3) Day 0” value amounted to 196 mm^3, the “% TGI” value amounted to 86.8%, the “% Tumor Growth” value is 117% and the “TV (mm^3) Day 20” value came out at 437 mm^3.
